How the values were obtained:
Beagle dogs [1] = test: Dog study: arterial blood gases, ventilation and acid-base status in normoxia and hypoxia; format: in vivo; conditions: iv bolus + continuous infusion
Description: The dogs were kept under highly standardized conditions and received a standardized diet five days before the experiments. […] To permit spontaneous breathing through a low resistance circuit, a face mask was attached, which enclosed the dog's snout in a leak proof fashion. This custom made mask is equipped with a 2.5 cm ID connector to connect it to a ventilator set to CPAP mode (3 4 cmH20) (Servo900C; Siemens-Elema, Erlangen/Germany).
(§1) Six dogs were studied in five different protocols in randomized order:
5) Ethoxzolamide (Sigma-Aldrich, Steinheim/Germany) intravenously: Bolus ethoxzolamide (1 mg/kg), followed by a continuous infusion of 1 mg·kg^−1·h^−1.
The hemodynamic measurements (arterial blood pressure, heart rate, central venous pressure, pulmonary artery pressure, pulmonary capillary wedge pressure), minute ventilation, renal function data, time points for blood samples for blood gases, actual bicarbonate, base excess, plasma electrolytes and hormones, measurements of plasma and urinary values were according to former studies.
(§2) Values are given as means±SEM (n=6). For intra-group comparisons a general linear model of analysis of variance (GLM-ANOVA) for repeated measures was applied (NCSS97/PASS 2000, Saugus/MA, USA). Post-hoc testing of means was performed with Student's t-test. Level of significance for error of first order was adjusted according to Holm's procedure. Statistical significance was assumed at p<0.05.

PASMCs = test: Basal intracellular Ca2+ concentration in PASMCs (Fura-2); format: cell-based, rat
Experimental: Intrapulmonary arteries (200-600 μm o.d.) were isolated from male Wistar rats (250-350 g) and cleaned of connective tissue. After the lumen was gently rubbed with a cotton swab to remove the endothelial cells, the arteries were allowed to recover for 30 minutes in cold (4° C.) HBSS containing (in mM): 130 NaCl, 5 KCl, 1.2 MgCl2, 1.5 CaCl2, 10 N-[2-hydroxyethyl]piperazine-N′-[2-ethanesulfonic acid] (HEPES) and 10 glucose, with pH adjusted to 7.2 with 5 M NaOH, followed by 20 minutes in reduced-Ca^2+ (20 μM CaCl2) HBSS at room temperature. […] Following digestion, single smooth muscle cells were dispersed by gentle trituration with a wide-bore transfer pipette in Ca^2+-free HBSS and the cell suspension was placed on 25 mm glass cover slips. PASMCs were transiently cultured in Ham's-F-12 media supplemented with 0.5% fetal bovine serum and 1% penicillin/streptomycin for 24-48 hrs. before study.
Acute hypoxia increases intracellular [Ca^2+] in pulmonary arterial smooth muscle by enhancing capacitative Ca^2+ entry. […] Ratiometric measurement of fluorescence from the dye was performed on a workstation (Intracellular Imaging Inc, Cincinnati, Ohio) consisting of a Nikon TSE 100 Ellipse inverted microscope with epi-fluorescence attachments. The light beam from a xenon arc lamp was filtered at 340 and 380 nm, and focused onto the PASMCS under examination via a 20× fluorescence objective (Super Fluor 20, Nikon). Light emitted from the cell at 510 nm was returned through the objective and detected by a cooled CCD imaging camera. An electronic shutter (Sutter Instruments) was used to minimize photobleaching of dye. Protocols were executed and data collected on-line with InCyte software (Intracellular Imaging Inc). [Ca^2+]i was estimated from in vitro calibration solutions.

Beagle dogs [2] = test: Dog study: plasma hormones, electrolytes and renal function; format: in vivo; conditions: iv bolus + continuous infusion
Experimental: A total of 30 experiments were performed on six female Beagle dogs (body wt 14.3±0.3 kg). The dogs were kept under highly standardized conditions and received a standardized diet five days before the experiments. The preparation and catheterization of the conscious dog were performed according to former experiments as in Höhne C., et al., J Appl Physiol (2004), which is hereby incorporated by reference in its entirety. To permit spontaneous breathing through a low resistance circuit, a face mask was attached, which enclosed the dog's snout in a leak proof fashion. This custom made mask is equipped with a 2.5 cm ID connector to connect it to a ventilator set to CPAP mode (3 4 cmH20) (Servo900C; Siemens-Elema, Erlangen/Germany).
as §1
4) Benzolamide intravenously: Bolus (2 mg/kg), followed by a continuous infusion of 2 mg·kg^−1·h^−1, a dosage which inhibits only renal and vascular endothelial extracellular CA, without affecting red cell CA as in Travis D. M., et al. J Pharmacol Exp Ther (1964), which is hereby incorporated by reference in its entirety. 5) Ethoxzolamide (Sigma-Aldrich, Steinheim/Germany) intravenously: Bolus ethoxzolamide (1 mg/kg), followed by a continuous infusion of 1 mg·kg^−1·h^−1.
In control experiments, the dogs breathed room air (21% O2, 79% N2; normoxia) for one hour, followed by breathing a gas mixture containing 10% O2 and 90% N2 for two hours (hypoxia). The time course was the same for the CA inhibitor experiments, but F1O2 was reduced to 0.09 during the hypoxia period to match the arterial and alveolar PO2 of the control dogs, which otherwise would have been higher on 10% O2 as a result of the known ventilatory stimulant effect of all CA inhibitors. See Höhne C., et al., J Appl Physiol 97:515-521 (2004), which is hereby incorporated by reference in its entirety. The hemodynamic measurements (arterial blood pressure, heart rate, central venous pressure, pulmonary artery pressure, pulmonary capillary wedge pressure), minute ventilation, renal function data, time points for blood samples for blood gases, actual bicarbonate, base excess, plasma electrolytes and hormones, measurements of plasma and urinary values were according to former studies. See Höhne C., et al., J Appl Physiol 90:1842-1848 (2001), which is hereby incorporated by reference in its entirety.
as §2

SMILES: CCOc1ccc2nc(S(N)(=O)=O)sc2c1 [EZ, ethoxzolamide]
- BEa, arterial base excess (Beagle dogs [1]; hypoxia 2nd h): -6.2 ± 1.2 mM
- HCO3a, arterial actual bicarbonate concentration (Beagle dogs [1]; hypoxia 2nd h): 18.1 ± 1.3 mM
- PaCO2, arterial carbon dioxide tension (Beagle dogs [1]; hypoxia 2nd h): 26 ± 1 Torr
- PaO2, arterial oxygen tension (Beagle dogs [1]; hypoxia 2nd h): 36 ± 1 Torr
- VE, minute ventilation (Beagle dogs [1]; hypoxia 2nd h): 6.4 ± 0.7 L/min
- pHa, arterial pH (Beagle dogs [1]; hypoxia 2nd h): 7.41 ± 0.01
- BEa, arterial base excess (Beagle dogs [1]; hypoxia 3rd h): -6.7 ± 1.1 mM
- HCO3a, arterial actual bicarbonate concentration (Beagle dogs [1]; hypoxia 3rd h): 17.6 ± 1.3 mM
- PaCO2, arterial carbon dioxide tension (Beagle dogs [1]; hypoxia 3rd h): 24 ± 1 Torr
- PaO2, arterial oxygen tension (Beagle dogs [1]; hypoxia 3rd h): 38 ± 1 Torr
- VE, minute ventilation (Beagle dogs [1]; hypoxia 3rd h): 6.9 ± 0.9 L/min
- pHa, arterial pH (Beagle dogs [1]; hypoxia 3rd h): 7.42 ± 0.01
- BEa, arterial base excess (Beagle dogs [1]; normoxia 1st h): -5.3 ± 0.5 mM
- HCO3a, arterial actual bicarbonate concentration (Beagle dogs [1]; normoxia 1st h): 19.6 ± 0.6 mM
- PaCO2, arterial carbon dioxide tension (Beagle dogs [1]; normoxia 1st h): 33 ± 1 Torr
- PaO2, arterial oxygen tension (Beagle dogs [1]; normoxia 1st h): 105 ± 1 Torr
- VE, minute ventilation (Beagle dogs [1]; normoxia 1st h): 4.0 ± 0.2 L/min
- pHa, arterial pH (Beagle dogs [1]; normoxia 1st h): 7.37 ± 0.01
- basal [Ca^2+]i, Treatment (PASMCs; 100 μM, after 10 min of perfusion): 122.5 ± 6.3 nM
- effect on resting [Ca^2+]i (PASMCs; 10-100 μM): neither EZ nor BZ altered
- basal [Ca^2+]i, Baseline (PASMCs; before perfusion with the compound): 125.5 ± 7.1 nM
- plasma renin activity during hypoxia (Beagle dogs [2]): did not change
- GFR, glomerular filtration rate (Beagle dogs [2]; hypoxia 2nd h): 0.186 ± 0.012 L/h/kg
- PK, plasma potassium concentration (Beagle dogs [2]; hypoxia 2nd h): 2.8 ± 0.1 mM
- UV, urine volume (Beagle dogs [2]; hypoxia 2nd h): 0.00432 ± 0.00132 L/h/kg
- GFR, glomerular filtration rate (Beagle dogs [2]; hypoxia 3rd h): 0.192 ± 0.012 L/h/kg
- PK, plasma potassium concentration (Beagle dogs [2]; hypoxia 3rd h): 2.7 ± 0.1 mM
- UV, urine volume (Beagle dogs [2]; hypoxia 3rd h): 0.0027 ± 0.00036 L/h/kg
- GFR, glomerular filtration rate (Beagle dogs [2]; normoxia 1st h): 0.192 ± 0.012 L/h/kg
- PK, plasma potassium concentration (Beagle dogs [2]; normoxia 1st h): 3.1 ± 0.1 mM
- UV, urine volume (Beagle dogs [2]; normoxia 1st h): 0.00312 ± 0.00054 L/h/kg
